SMILES strings stand for the structures. In brackets after ≈: the same amount, converted by molar mass. Several values for one entry are separate records, joined by “and”; a condition that tells them apart may be missing. Equal entries are not always repeated.

Some test systems named below: Escherichia coli ML-35; Escherichia coli TOP 10; Escherichia coli HB101; Escherichia coli BW25113.
What all share (assay): ≥ marks a high value that may be exact or a test limit, other limits are often not marked, values filed in µg/mL are converted to µM
Experiment [1] has as its system Mycobacterium tuberculosis H37Rv.
Experiment [2] has as its system Batrachochytrium dendrobatidis.
Experiment [3] deals with Escherichia coli ATCC 25922.
Experiment [4] relates to Staphylococcus aureus FDA 209P.
For experiment [5], the system named is Pseudomonas aeruginosa ATCC BAA-427.
The test system of experiment [6] is Bacillus subtilis ATCC 6633.
Experiment [7] relates to Escherichia coli ATCC 10536.
The test system of experiment [8] is Staphylococcus aureus ATCC 25923.
In experiment [9] the test system is Staphylococcus aureus ATCC 33591.
The subject of experiment [10] is Candida krusei ATCC 20029.
Experiment [11] has as its system Staphylococcus epidermidis ATCC 12228.
Experiment [12] deals with Acinetobacter baumannii ATCC 19606.
Experiment [13] deals with Pseudomonas aeruginosa ATCC 27853.
For experiment [14], the system named is Cryptococcus neoformans ATCC 24067.
The test system of experiment [15] is Cryptococcus gattii ATCC 32608.
Experiment [16] concerns Bacillus subtilis KCTC 1918.
For experiment [17], the system named is Trichosporon beigelii KCTC 7707.
Experiment [18] relates to Staphylococcus epidermidis KCTC 3096.
For experiment [19], the system named is Salmonella typhimurium KCTC 1926.
Experiment [20] concerns Pseudomonas aeruginosa KCTC 1637.
The subject of experiment [21] is Candida albicans TIMM 1768.
The test system of experiment [22] is Escherichia coli BW25113 ΔsbmA.
The test system of experiment [23] is Salmonella enterica subsp. enterica serovar Typhimurium ATCC 14028.
Experiment [24] relates to Serratia marcescens ATCC 8100.
The subject of experiment [25] is Escherichia coli ATCC 8739.
Experiment [26] relates to Pseudomonas aeruginosa ATCC 9027.
Experiment [27] relates to Staphylococcus aureus ATCC 6538.
Experiment [28] deals with Candida albicans ATCC 64550.

Take `CC[C@H](C)[C@H](NC(=O)[C@@H]1CCCN1C(=O)[C@H](CCCN=C(N)N)NC(=O)CNC(=O)[C@H](C)NC(=O)[C@H](CCCN=C(N)N)NC(=O)[C@H](Cc1cnc[nH]1)NC(=O)[C@H](C)NC(=O)[C@H](C)N)C(=O)N[C@@H](Cc1cnc[nH]1)C(=O)N[C@@H](CC(=O)O)C(=O)N[C@@H](C)C(=O)NCC(=O)N[C@H](C(=O)N[C@H](C(=O)N[C@@H](CCCCN)C(=O)N[C@@H](CCC(N)=O)C(=O)O)C(C)C)C(C)C` [AAHRAGRPIHDAGVVKQ]: the MIC (usually the lowest concentration that inhibits growth of the organism) in experiment [1] is at least 112 µM.
Consider `CC[C@H](C)[C@H](NC(=O)CN)C(=O)N[C@@H](Cc1ccccc1)C(=O)N[C@@H](CO)C(=O)N[C@@H](CCCCN)C(=O)N[C@@H](CC(C)C)C(=O)N[C@@H](C)C(=O)NCC(=O)N[C@@H](CCCCN)C(=O)N[C@@H](CCCCN)C(=O)N[C@H](C(=O)N[C@@H](CCCCN)C(=O)N[C@@H](CC(N)=O)C(=O)N[C@@H](CC(C)C)C(=O)N[C@@H](CC(C)C)C(=O)N[C@H](C(=O)N[C@@H](CO)C(=O)NCC(=O)N[C@@H](CC(C)C)C(=O)N[C@@H](CCCCN)C(=O)N[C@@H](CC(N)=O)C(=O)N[C@H](C(=O)NCC(=O)N[C@@H](CCCCN)C(=O)N[C@@H](CCC(=O)O)C(=O)N[C@H](C(=O)NCC(=O)N[C@@H](CCSC)C(=O)N[C@@H](CC(=O)O)C(=O)N[C@H](C(=O)N[C@H](C(=O)N[C@@H](CCCN=C(N)N)C(=O)N[C@H](C(=O)NCC(=O)N[C@H](C(=O)N[C@@H](CC(=O)O)C(=O)N[C@H](C(=O)N[C@@H](C)C(=O)NCC(=O)N[C@H]1CSSC[C@@H](C(=O)O)NC(=O)[C@H](CCC(=O)O)NC(=O)CNC(=O)[C@H](CCCCN)NC(=O)[C@H]([C@@H](C)CC)NC(=O)[C@H](CCCCN)NC1=O)[C@@H](C)CC)[C@@H](C)CC)[C@@H](C)O)C(C)C)C(C)C)C(C)C)C(C)C)[C@@H](C)CC)[C@@H](C)CC` [GIFSKLAGKKIKNLLISGLKNVGKEVGMDVVRTGIDIAGCKIKGEC], for which the MIC in experiment [2] is 25 µM and 12.5 µM; in experiment [3] it was 2.8 µM (≈ 13.4 µg/mL); in [4] it was 4.3 µM (≈ 20.6 µg/mL).
Take `CC[C@H](C)[C@H](N)C(=O)N[C@@H](CC(C)C)C(=O)NCC(=O)N[C@@H](CCCCN)C(=O)N[C@H](C(=O)N[C@@H](Cc1c[nH]c2ccccc12)C(=O)N[C@@H](CCC(=O)O)C(=O)NCC(=O)N[C@@H](CCCCN)C(=O)N[C@@H](CCCCN)C(=O)N[C@@H](CO)C(=O)N[C@@H](CC(C)C)C(=O)N[C@@H](Cc1ccccc1)C(N)=O)[C@@H](C)CC` [ILGKIWEGKKSLF]: the MIC in experiment [5] came out at 8 µM (≈ 12.1 µg/mL); in [6], 2 µM (≈ 3.04 µg/mL); in experiment [7], 4 µM (≈ 6.07 µg/mL); in [3], 8 µM (≈ 12.1 µg/mL); in experiment [8] it was 8 µM (≈ 12.1 µg/mL).
`CC[C@H](C)[C@H](N)C(=O)N[C@@H](Cc1c[nH]c2ccccc12)C(=O)N[C@@H](CC(C)C)C(=O)N[C@H](C(=O)N[C@@H](C)C(=O)N[C@@H](CC(C)C)C(=O)N[C@@H](CCCCN)C(=O)N[C@@H](Cc1ccccc1)C(=O)N[C@@H](CC(C)C)C(=O)NCC(=O)N[C@@H](CCCCN)C(=O)N[C@@H](CC(N)=O)C(=O)N[C@@H](CC(C)C)C(=O)NCC(=O)N[C@@H](CCCCN)C(N)=O)[C@@H](C)O` [IWLTALKFLGKNLGK]: the minimum inhibitory concentration (MIC) in experiment [9] is 4.7 µM (≈ 8 µg/mL); in [10], at least 37.6 µM; in [11], 4.18 µM (≈ 7.11 µg/mL); in experiment [12], 5.27 µM (≈ 8.97 µg/mL); in experiment [13], 37.6 µM (≈ 64 µg/mL); in experiment [3], 14.9 µM (≈ 25.4 µg/mL). Further, the figures for the MIC in experiment [14] and in [15] were 14.9 µM (≈ 25.4 µg/mL) and 3.73 µM (≈ 6.35 µg/mL), respectively.
On to `CC[C@H](C)[C@H](NC(=O)CNC(=O)[C@@H](NC(=O)[C@H](CCCCN)NC(=O)[C@H](CCCCN)NC(=O)[C@H](Cc1ccccc1)NC(=O)[C@H](CC(C)C)NC(=O)[C@H](CCCCN)NC(=O)[C@H](Cc1c[nH]c2ccccc12)NC(=O)[C@H](CCCCN)NC(=O)[C@H](CCCCN)NC(=O)[C@H](CCCCN)NC(=O)[C@@H](N)CCCCN)[C@@H](C)CC)C(=O)NCC(=O)N[C@@H](CCCCN)C(=O)N[C@@H](Cc1ccccc1)C(=O)N[C@@H](CC(C)C)C(N)=O` [KKKKWKLFKKIGIGKFL], for which the minimal inhibitory concentration (MIC) in experiment [16] was 3.12 µM (≈ 6.52 µg/mL); in experiment [17], 6.25 µM (≈ 13.1 µg/mL); in experiment [18] it was 3.12 µM (≈ 6.52 µg/mL); in [19], 0.19 µM (≈ 0.397 µg/mL); in experiment [20], 1.56 µM (≈ 3.26 µg/mL); in experiment [21], 12.5 µM (≈ 26.1 µg/mL).
On to `CC[C@H](C)[C@H](NC(=O)[C@H](CCCN=C(N)N)NC(=O)[C@@H](N)CCCN=C(N)N)C(=O)N[C@@H](CCCN=C(N)N)C(=O)N1CCC[C@H]1C(=O)N[C@@H](CCCN=C(N)N)C(=O)N1CCC[C@H]1C(=O)N1CCC[C@H]1C(=O)N[C@@H](CCCN=C(N)N)C(=O)N[C@@H](CC(C)C)C(=O)N1CCC[C@H]1C(=O)N[C@@H](CCCN=C(N)N)C(=O)N1CCC[C@H]1C(=O)N[C@@H](CCCN=C(N)N)C(=O)N1CCC[C@H]1C(=O)N[C@@H](CCCN=C(N)N)C(=O)N1CCC[C@H]1C(=O)N[C@@H](CC(C)C)C(=O)N1CCC[C@H]1C(=O)N[C@@H](Cc1ccccc1)C(=O)N1CCC[C@H]1C(=O)N[C@@H](CCCN=C(N)N)C(=O)N1CCC[C@H]1C(=O)O` [RRIRPRPPRLPRPRPRPLPFPRP], for which the MIC in [22] was at least 52.1 µM; with Escherichia coli ML-35, 1 µM (≈ 2.88 µg/mL); in the experiment with Escherichia coli TOP 10, 4.6 µM (≈ 13.3 µg/mL); in the experiment with Escherichia coli HB101, 0.5 µM (≈ 1.44 µg/mL); in experiment [23] it was 2 µM (≈ 5.76 µg/mL); against Escherichia coli BW25113 it was 7.4 µM (≈ 21.3 µg/mL). The minimal inhibitory concentration (MIC) in experiment [24] was 4 µM (≈ 11.5 µg/mL); in experiment [8], over 128 µM.
For the compound `NCCCC[C@H](NC(=O)[C@H](Cc1c[nH]c2ccccc12)NC(=O)[C@H](Cc1ccccc1)NC(=O)[C@@H](N)Cc1c[nH]c2ccccc12)C(=O)N[C@@H](Cc1c[nH]c2ccccc12)C(=O)N[C@@H](Cc1c[nH]c2ccccc12)C(=O)N[C@@H](CCCN=C(N)N)C(=O)N[C@@H](CCCN=C(N)N)C(=O)N[C@@H](CCCN=C(N)N)C(=O)N[C@@H](CCCN=C(N)N)C(=O)N[C@@H](CCCN=C(N)N)C(N)=O` [WFWKWWRRRRR], the minimal inhibitory concentration (MIC) in experiment [25] was 3.1 µM (≈ 5.64 µg/mL); in experiment [26], 4.6 µM (≈ 8.36 µg/mL); in experiment [27], 1.7 µM (≈ 3.09 µg/mL); in experiment [28], at least 100 µM.
In the case of `C[C@H](NC(=O)[C@H](Cc1c[nH]c2ccccc12)NC(=O)[C@H](CCCN=C(N)N)NC(=O)[C@@H](N)Cc1ccc(O)cc1)C(=O)N[C@@H](CCCN=C(N)N)C(=O)N[C@@H](Cc1c[nH]c2ccccc12)C(=O)N[C@@H](Cc1c[nH]c2ccccc12)C(=O)N[C@@H](CCCN=C(N)N)C(=O)N[C@@H](CCCN=C(N)N)C(N)=O` [YRWARWWRR], the minimal inhibitory concentration (MIC) in experiment [28] was at least 100 µM; in experiment [13], 3.48 µM (≈ 5 µg/mL); in experiment [3], 6.97 µM and 5.22 µM; in experiment [8], 3.48 µM (≈ 5 µg/mL).

(Values after DBAASP.)
